# Experimental data taken from article PMC6609550, “Blockade of the forward Na^+/Ca^2+ exchanger suppresses the growth of glioblastoma cells through Ca^2+‐mediated cell death” (British Journal of Pharmacology, 2019).
# Experiments:
# Type in all cases: cell-based, Human
# U87 cells [1] = experiment: Cell cycle assay (PI staining, flow cytometry) of U87 cells
# Protocol: (§1) U87 cells were seeded in six‐well plates (Corning, Corning, NY, USA) with 1 × 10^6 cells per well and treated with NCX blockers, BAPTA‐AM, or MAPK inhibitors. Drug treatment was performed by the person who is blinded to the experimental groups. After treatment, cells were harvested in 15‐ml tubes and washed with cold sterile PBS. After being centrifuged, cells were fixed with 70% ethanol […] at 4°C for at least 1 hr. For propidium iodide (PI) staining, cells were washed one time with PBS and then were treated with ribonuclease A (RNase; 100 μg·ml^−1) for 30 min. PI (10 μg·ml^−1) was added, and stained cells were kept in the dark at 4°C until analysis. The number of cells analysed for each sample was 10,000 events. FACS analysis was performed using the Coulter CytoFlexS flow cytometer (Beckman Coulter, CA, USA), and the percentage of cells in the G0/G1, S, and G2/M phases was determined using cell cycle analysis software, ModFit LT 5.0 (Verity Software House, Topsham, ME, USA). For the apoptosis assay, cells were harvested and washed twice with cold PBS and resuspended at a density of 1 × 10^6 cells·ml^−1 in 100 μl of binding buffer containing 5 μl of Annexin V–FITC and 5 μl of PI working solution (100 μg·ml^−1). After incubation at room temperature for 15 min in the dark, 400 μl of binding buffer was added to each sample. Apoptosis was analysed by Coulter CytoFlexS flow cytometer (Beckman Coulter) for at least 10,000 events, and data were analysed with the software, CyExpert 2.0 (Beckman Coulter).
# p38‐MAPK = experiment: Western blot of phosphorylated and total p38-MAPK in U87 cells; settings: BAPTA‐AM 10 μM 18 hr then bepridil 25 μM 30 min
# Protocol: (§2) After treatment with bepridil for 0, 30, 60, and 90 min, cells were collected and lysed in RIPA buffer (Beyotime, Nanjing, China) supplemented with protease inhibitor (Beyotime). The total protein concentration of each sample was determined using the BCA Protein Assay Kit (Sangon Biotech, Shanghai, China). Equal protein extracts (45‐μg protein per lane) were separated by SDS‐PAGE and electrophoretically transferred to PVDF membranes (Millipore, Bedford, MA, USA). Then, the membranes were incubated with anti‐phosphorylated and total http://www.guidetopharmacology.org/GRAC/FamilyDisplayForward?familyId=514, http://www.guidetopharmacology.org/GRAC/FamilyDisplayForward?familyId=518, and http://www.guidetopharmacology.org/GRAC/FamilyDisplayForward?familyId=519 antibodies (1:1,000; Cell Signaling Technology) at 4°C overnight, followed by incubation with IRDye 680LT fluorescent secondary antibody (LI‐COR Biosciences, Lincoln, NE, USA). Proteins were visualized using the Odyssey Fc Imaging System (LI‐COR Biosciences, Lincoln, NE, USA). Mouse α‐tubulin antibody was used as protein loading controls. The immuno‐related procedures used comply with the recommendations made by the British Journal of Pharmacology (Alexander et al., 2018).
# [Ca^2+]i in U87 cells = Ca2+ imaging (Fluo-4 AM) of U87 cells; settings: BAPTA‐AM 20 μM for 2 hr before perfusion
# Protocol: Cells were cultured in 96‐well plates at 8 × 10^3 per well and loaded with the cell membrane‐permeable Ca^2+ dye Fluo‐4 AM (5 μM) in 100‐μl HEPES‐buffered solution for 50 min. The solution contained (mM): 135 NaCl, 3 KCl, 2 CaCl2, 1 MgCl2, 10 glucose, and 10 HEPES, supplemented with 1% FBS at pH 7.4. To prepare the Ca^2+‐free solution, 2‐mM CaCl2 was replaced with 1‐mM EGTA in the HEPES‐buffered solution. The 96‐well plate containing the Fluo‐4 AM‐loaded cells was mounted in a Leica TCS SP8 confocal system (Leica Microsystems, Wetzlar, Germany). The confocal microscope armed with 488‐nm laser light was employed to excite the dynamic fluorescent signals in time and synchronously, while test regents were added to cells. To do Na^+ imaging, Fluo‐4 AM was replaced with the cell membrane‐permeable Na^+ dye Asante NaTrium Green‐2 AM (ANG‐2 AM) at 5 μM, which was excited by 514‐nm laser light. Visual inspection and fluorescent imaging were carried out at room temperature. The imaging data were analysed with the software https://leica-las-af-lite.software.informer.com/ 2.5 (Leica). The imaging traces shown are representative of at least three separate experiments; 12–18 cells were imaged in each experiment.
# U87 cells [2] = experiment: Annexin V–FITC/PI apoptosis assay of U87 cells
# Protocol: as §1
# JNK = experiment: Western blot of phosphorylated and total JNK in U87 cells; settings: BAPTA‐AM 10 μM 18 hr then bepridil 25 μM 30 min
# Protocol: as §2
# [3] = BAPTA‐AM 10 μM 18 hours then CB‐DMB 3.5 μM 18 hours
structure (smiles),measurement,setting,value
"CC(=O)OCOC(=O)CN(CC(=O)OCOC(C)=O)c1ccccc1OCCOc1ccccc1N(CC(=O)OCOC(C)=O)CC(=O)OCOC(C)=O [BAPTA‐AM, 1,2‐bis(2‐aminophenoxy)ethane‐N,N,N′,N′‐tetraacetic acid tetrakis (acetoxymethyl ester)]",Effect on CB-DMB-induced cell cycle arrest,U87 cells [1]; [3],significantly attenuated
same,Effect on KB-R7943-induced G0/G1 arrest,"U87 cells [1]; BAPTA‐AM 10 μM + KB‐R7943 25 μM, 18 hr",not rescued
same,Effect on bepridil-induced G0/G1 cell cycle arrest,"U87 cells [1]; bepridil 25 μM 18 hr, pretreatment BAPTA‐AM 10 μM, CC‐930 10 μM or PD169316 10 μM",significantly attenuated
same,Effect on bepridil-induced p38-MAPK activation,p38‐MAPK,attenuated
same,Effect of pretreatment on the influence of bepridil and KB‐R7943 on [Ca2+]i,[Ca^2+]i in U87 cells,completely abrogated
same,Effect on CB-DMB-induced apoptosis,U87 cells [2]; [3],significantly suppressed
same,Effect on KB-R7943-induced apoptosis,"U87 cells [2]; BAPTA‐AM 10 μM + KB‐R7943 25 μM, 20 hr",not attenuated
same,Effect on bepridil-induced apoptosis,"U87 cells [2]; bepridil 25 μM 24 hr, pretreatment BAPTA‐AM 10 μM, CC‐930 10 μM or PD169316 10 μM",significantly attenuated
same,Effect on bepridil-induced JNK activation,JNK,attenuated
